Entries after “also recorded” stand apart in the source; their conditions may differ.
Columns and labels:
clinical = test: clinical; design: species or system human; settings: in vivo; for AUC: AUC0-τ; for half-life: T1/2 el
Description: (§1) Data sets analyzed—Six (6) healthy, adult non-smokers were administered intravenously a single daily dose of 10 mg/kb of P5P for four consecutive days and completed the study. In accordance with the study protocol, data from all subjects who completed the study were used for pharmacokinetic and statistical analysis.
Analytical Methods—Plasma and urine samples were used for analysis. P5P, PAL, and PA levels were determined by HPLC/FLD. The quantitation level was 5 ng/mL for plasma and 100 ng/mL for urine. The sample analysis calibration curve range was 5 ng/mL to 5000 ng/mL for plasma and 100 ng/mL to 50,000 ng/mL for urine.
When the difference exceeded this time limit, the actual sampling times (rounded off to three decimal digits) were used to calculate pharmacokinetic parameters except for pre-dose samples, which were always reported as zero (0.000), regardless of time deviations. Scheduled sampling times are presented in concentration tables and graphs of the statistical section of the report.
Pharmacokinetic analyses (non-compartmental and compartmental) were performed at SFBC Anapharm. Pharmacokinetic parameters were calculated using either Bioequiv (release 3.40) or WinNonLin™ (release 4.0.1). Bioequiv is proprietary software developed and tested for bioequivalence studies at SFBC Anapharm. This software performs non-compartmental analyses of pharmacokinetic parameters and statistical analyses (via SAS release 6.12) according to FDA, HPFB and BMEA guidance.
The mean, standard deviation (SD), coefficient of variation (CV (%)) and range (min. and max.) were calculated for plasma concentrations of P5P (both baseline corrected and uncorrected), PAL and PA for each sampling time and treatment.
For the non-compartmental pharmacokinetic analyses the mean. SD, CV (%). range (min. and max.), median and interquartile range were calculated for the AUC0-t, (ng·h/mL), AUC0-t (ng·h/mL), AUC0-inf (ng·h/mL), Cmax (ng/mL), Cmin (ng/mL), Cavg (ng/mL), Fl(%), Ae0-t (ng), AUC^t/inf (%), Tmax (h), T1/2 el (h), Kel (h^−1), TLIN (h), LQCT (h). CLT (L/h), CLR (L/h). Vβ (L), MRT (h) and Accumulation ratio. The calculation of these pharmacokinetic parameters is explained below.
Cmax the maximum observed concentration, and Tmax, the time to reach that peak concentration, were determined for each subject and for each analyte. For Day 4 data, Cmin the minimum observed concentration was determined for each subject and for each analyte and Cavg was calculated as AUC0-τ/τ.
Percentage of Fluctuation—For Day 4 data, the peak-through percentage of fluctuation over one dosing interval (Fl(%)) was calculated as: 100*([Cmax−Cmin]/Cavg)
Half-Life and Elimination Rate Constant—To calculate the elimination rate constant (Kel), regression analyses were performed on the natural log(Ln) of plasma concentration values (y) versus time (x). Calculations were made between a time point where log-linear elimination phase begins (TLIN) and the time at which the last concentration above the limit of quantification (LQCT) occurred. The Kel was taken as the slope multiplied by (−1) and the apparent half-life (T1/2 el) as (In 2)/Kel.
TLIN and LQCT—TLIN, the time point where In-linear Kel calculation begins, and LQCT, the sampling time of the last quantifiable concentration used to estimate the Kel were determined by the scientist (according to SFBC Anapharm's standard operating procedures) for each subject and for each treatment. At least 4 non-zero observations during the terminal elimination phase were used to calculate the Kel. A minimum of 3 observations were used if less than 4 observations were available.
Areas Under the Concentration-Time Curves—AUC0-t was calculated using the linear trapezoidal rule from time 0.000 h until the last non-zero concentration.
AUC0-τ was calculated using the linear trapezoidal rule from time 0.000 h until 24.0 h.
The AUC0-inf was calculated as: […]

[1] = Safety and tolerability of single intravenous doses of P5P (Example Three); assay type: in vivo, human
Description: Methodology—This was a single-blind, single-dose escalation, non-randomized, 4-phase, non-crossover study designed to evaluate the safety and tolerability of P5P intravenous injectable solution at doses of 1, 5, 10, 20 mg/kg, administered to four groups of healthy male and female subjects under fasting conditions and to estimate pharmacokinetic parameters of P5P.
Safety data were collected for each subject throughout the study by recording vital signs, ECGs and reported adverse events.
Primary Endpoint—Safety Parameters—The safety parameters investigated in this study were vital signs measurements (blood pressure, pulse rate), ECG measurements (1, 2 and 12 hours post-dose), platelet function testing, and severity and causality of adverse events experienced by subjects during the study period and laboratory assessments (clinical chemistry, hematology, urinalysis).

[2] = Safety evaluation of once daily intravenous 10 mg/kg P5P for four days (Example Four); assay type: in vivo, human
Description: as §1
Safety Methods—The safety parameters investigated in this study were: adverse events, vital sign measurements, ECGs, physical examination and standard laboratory evaluations.

For `Cc1ncc(CO)c(C=O)c1O` [PAL, pyridoxal], the “ANOVA, difference between treatment days” value (clinical; human) was “statistically significant difference between treatment days was detected using ANOVA for In-transformed AUC0-t, and AUC0-inf but not for Cmax”, the “Ratio of LS Means, AUC0-inf” value (clinical; human) was 133.70% and the “Ratio of LS Means, AUC0-t” value (clinical; human) was 132.83%. For the same molecule, the “Ratio of LS Means, Cmax” value (clinical; human) was 101.45%, the AUC(0-inf) (clinical; human, iv, 10 mg/kg) was 30077.45 ng·h/mL and the AUC(0-t) (clinical; human, iv, 10 mg/kg) was 29682.94 ng·h/mL. It also gave a Cmax (clinical; human, iv, 10 mg/kg) of 6902 ng/mL, a Tmax (clinical; human, iv, 10 mg/kg) of 0.691 h and an AUC(0-inf) (clinical; human, iv, 10 mg/kg, AUC0-inf) of 22400 ng·h/mL. The AUC(0-t) (clinical; human, iv, 10 mg/kg, AUC0-t) was 22300 ng·h/mL, the AUC (clinical; human, iv, 10 mg/kg) was 29700 ng·h/mL and the Cmax (clinical; human, iv, 10 mg/kg, Cmax) was 7630 ng/mL. The MRT (clinical; human, iv, 10 mg/kg) was 4.06 h, the half-life (clinical; human, iv, 10 mg/kg) was 3.4 h and the Tmax (clinical; human, iv, 10 mg/kg, Tmax) was 0.525 h.

For `Cc1ncc(COP(=O)(O)O)c(C=O)c1O` [P5P, Pyridoxal 5′-phosphate, reference compound], the safety and tolerability ([1]; single iv dose, doses up to 20 mg/kg) was “safe and well tolerated”, the “common side effects observed” value ([1]; single iv doses 1-20 mg/kg) was “nausea, vomiting and stomach upset” and the “clinically significant elevated white blood cells (WBC) in urine (pyuria)” value ([2]; 10 mg/kg iv once daily, 4 days) was “observed for two subjects”. For the same molecule, the diarrhea or vomiting ([2]; 10 mg/kg iv once daily, 4 days) was “No diarrhea or vomiting was reported”, the overall safety profile ([2]; 10 mg/kg iv once daily, 4 days) was “No serious, severe, or significant adverse events; also recorded: well tolerated with no serious or lasting treatment related effects” and the “abnormal taste in the mouth” value ([2]; 1 subject, 10 mg/kg iv once daily, 4 days) was 16.7%. The “dizziness (feels dizzy and dizziness)” value ([2]; 2 subjects, 10 mg/kg iv once daily, 4 days) was 33.3 % of subjects, the nausea ([2]; 3 subjects, 10 mg/kg iv once daily, 4 days) was 50.0 % of subjects and the “inflammation at injection site” value ([2]; 3 subjects, judged unrelated to the study medication) was 50.0 % of subjects. It also gave a total adverse events ([2]; six subjects, 10 mg/kg iv once daily, 4 days) of 40, a Tmax (clinical; human, Tmax) of 0.067 h and an AUC0-τ (clinical; human, iv, 10 mg/kg) of 303393.72 ng·h/mL. For the same molecule, the Tmax (clinical; human, iv, 10 mg/kg) was 0.081 h, the AUC(0-inf) (clinical; human, iv, 10 mg/kg, AUC0-inf) was 283000 ng·h/mL and the AUC(0-t) (clinical; human, iv, 10 mg/kg, AUC0-t) was 278000 ng·h/mL. The AUC (clinical; human, iv, 10 mg/kg) was 303000 ng·h/mL, the clearance (clinical; human, iv, 10 mg/kg, CLτ (text: CLT, total body clearance)) was 42.5 mL/min and the Cmax (clinical; human, iv, 10 mg/kg, Cmax) was 191000 ng/mL. It also gave an MRT (clinical; human, iv, 10 mg/kg) of 3.4 h, a half-life (clinical; human, iv, 10 mg/kg) of 5.14 h and a Tmax (clinical; human, iv, 10 mg/kg, Tmax) of 0.089 h. For the same molecule, the “ANOVA, difference between treatment days” value (clinical) was “did not detect any statistically significant difference”.

In the case of `Cc1ncc(CO)c(C(=O)O)c1O` [PA, 4-pyridoxic acid], the “Ratio of LS Means, AUC0-inf” value (clinical; human) is reported as 99.47%, the “Ratio of LS Means, AUC0-t” value (clinical; human) is reported as 99.75% and the “Ratio of LS Means, Cmax” value (clinical; human) is reported as 97.17%. For the same molecule, the AUC(0-inf) (clinical; human, iv, 10 mg/kg) was 21097.95 ng·h/mL, the AUC(0-t) (clinical; human, iv, 10 mg/kg) was 20704.80 ng·h/mL and the Cmax (clinical; human, iv, 10 mg/kg) was 4238 ng/mL. It also gave a Tmax (clinical; human, iv, 10 mg/kg) of 0.528 h, an AUC(0-inf) (clinical; human, iv, 10 mg/kg, AUC0-inf) of 21200 ng·h/mL and an AUC(0-t) (clinical; human, iv, 10 mg/kg, AUC0-t) of 20700 ng·h/mL. It also gave an AUC (clinical; human, iv, 10 mg/kg) of 21200 ng·h/mL, a Cmax (clinical; human, iv, 10 mg/kg, Cmax) of 4360 ng/mL and an MRT (clinical; human, iv, 10 mg/kg) of 3.85 h. The half-life (clinical; human, iv, 10 mg/kg) was 2.3 h, the Tmax (clinical; human, iv, 10 mg/kg, Tmax) was 0.611 h and the “ANOVA, difference between treatment days” value (clinical) was “did not detect any statistically significant difference”.

From patent publication US20090018106A1, “INTRAVENOUS FORMULATIONS OF PYRIDOXAL 5'- PHOSPHATE AND METHOD OF PREPARATION” (Medicure International Inc., priority 2005, published 2009)
